The target of this experiment is T1, NPY Y2 receptor (Homo sapiens, UniProt P49146).
T1 sequence (P49146 1-381): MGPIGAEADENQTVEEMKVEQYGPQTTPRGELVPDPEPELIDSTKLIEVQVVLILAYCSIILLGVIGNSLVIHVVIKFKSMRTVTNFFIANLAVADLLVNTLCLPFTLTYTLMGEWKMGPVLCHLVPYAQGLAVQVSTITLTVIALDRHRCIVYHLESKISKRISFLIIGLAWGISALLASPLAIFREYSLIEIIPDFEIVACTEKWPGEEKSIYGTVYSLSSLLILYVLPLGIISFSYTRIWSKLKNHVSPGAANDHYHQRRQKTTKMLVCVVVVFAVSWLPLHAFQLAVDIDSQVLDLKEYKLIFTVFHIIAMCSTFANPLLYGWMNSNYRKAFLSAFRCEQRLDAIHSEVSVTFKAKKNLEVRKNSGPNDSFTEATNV
Description: Neuropeptide Y2 radioligand binding assay ([125I]PYY, KAN-Ts membranes). The conditions noted are these: KAN-Ts membranes endogenously expressing Y2, [125I]PYY (80 pM), 1 h at rt. Also on record: endogenous in cells; host or cells: KAN-Ts cells (membrane preparation). The method, then: KAN-Ts endogenously expressing Y2 receptors were used for the radioligand binding assay. Cells were grown to confluence on 150 cm^2 tissue culture plates, washed with phosphate-buffered saline (PBS), and scraped into 50 mL tubes. After centrifugation, the supernatant was aspirated, and the pellets frozen and stored at −80° C. Thawed pellets were homogenized with a polytron tissue grinder for 15 sec in 20 mM Tris-HCl, 5 mM EDTA. The homogenate was centrifuged at 800×g for 5 min and the collected supernatant was recentrifuged at 25000×g for 25 min. The resulting pellet was resuspended in binding buffer (20 mM HEPES, 120 mM NaCl, 0.22 mM KH2PO4, 1.3 mM CaCl2, 0.8 mM MgSO4). Membranes were incubated with [^125I]PYY (80 pM) in the presence or absence of test compound for 1 h at rt. The reaction was stopped by filtration through GF/C filter plates pre-soaked in 0.3% polyethylenimine and subsequently washed with Tris 50 mM, 5 mM EDTA buffer. Plates were dried for 1 h in a 55° C. oven, scintillation fluid was added and the radioactivity was counted in a Packard TopCount. Specific binding to the NPY receptor subtypes was determined by radioactivity that was bound in the presence of […]. Each binding experiment was repeated three to eight times, each in duplicate. IC50 values (i.e. concentration of unlabelled peptide or antagonist required to compete for 50% of specific binding to the radioligand) were calculated using the GraphPad Prism software (GraphPad Software Inc., San Diego Calif.) with a fit to a sigmoidal dose response curve. Apparent K, values were calculated as Ki=IC50/(1+C/KD), where C is concentration of the radioligand.

A value given as a limit tells only on which side of the number the result lay.

What is called IC50 is the concentration needed to halve the response being measured. High values mean a need for much substance, low ones inhibition by little substance. Take `N#Cc1cc(NC(=O)C2CCC2)ccc1N1CCN(C(c2ccccc2)c2ncco2)CC1` (centres unmarked) [Compound 95, Cyclobutanecarboxylic acid {3-cyano-4-[4-(oxazol-2-yl-phenyl-methyl)-piperazin-1-yl]-phenyl}-amide]: the IC50 came to 100 nM.
The same measure for `Cc1ccccc1C(=O)Nc1ccc(N2CCN(C(c3ccccc3)c3ncco3)CC2)c(C#N)c1` (centres unmarked) [Compound 96, N-{3-Cyano-4-[4-(oxazol-2-yl-phenyl-methyl)-piperazin-1-yl]-phenyl}-2-methyl-benzamide]: 150 nM; for `CCCC(=O)Nc1ccc(N2CCN(C(c3ccccc3)c3ncco3)CC2)c(C#N)c1` (centres unmarked) [Compound 98, N-{3-Cyano-4-[4-(oxazol-2-yl-phenyl-methyl)-piperazin-1-yl]-phenyl}-butyramide]: 180 nM; for `CCCC(=O)Nc1ccc(N2CCN(C(c3ccccc3)c3ncco3)CC2)c(F)c1` (centres unmarked) [Compound 100, N-{3-Fluoro-4-[4-(oxazol-2-yl-phenyl-methyl)-piperazin-1-yl]-phenyl}-butyramide]: 1300 nM.
Regarding `N#Cc1cc(NC(=O)C2CC2)ccc1N1CCN(C(c2ccccc2)c2ncco2)CC1` (centres unmarked) [Compound 101, Cyclopropanecarboxylic acid {3-cyano-4-[4-(oxazol-2-yl-phenyl-methyl)-piperazin-1-yl]-phenyl}-amide], the IC50 was 170 nM.
The value for `CCC(CC)C(=O)Nc1ccc(N2CCN(C(c3ccc(Cl)cc3)C3CC3)CC2)c(F)c1` (centres unmarked) [Compound 102, N-(4-{4-[(4-Chloro-phenyl)-cyclopropyl-methyl]-piperazin-1-yl}-3-fluoro-phenyl)-2-ethyl-butyramide] was 720 nM; that for `CC(=O)Nc1ccc(N2CCN(C(c3ccccc3)c3ncco3)CC2)c(C#N)c1` (centres unmarked) [Compound 103, N-{3-Cyano-4-[4-(oxazol-2-yl-phenyl-methyl)-piperazin-1-yl]-phenyl}-acetamide] was > 10000 nM; that for `CC(=O)Nc1ccc(N2CCN(C(c3ccccc3)c3ncco3)CC2)c(F)c1` (centres unmarked) [Compound 104, N-{3-Fluoro-4-[4-(oxazol-2-yl-phenyl-methyl)-piperazin-1-yl]-phenyl}-acetamide] was > 10000 nM.
Compound `CCC(CC)C(=O)Nc1ccc(N2CCN(C(c3ccc(F)cc3)C3CCC3)CC2)c(F)c1` (centres unmarked) [Compound 106, N-(4-{4-[Cyclobutyl-(4-fluoro-phenyl)-methyl]-piperazin-1-yl}-3-fluoro-phenyl)-2-ethyl-butyramide] returned an IC50 of 250 nM.
The value for `O=C(Nc1ccc(N2CCN(C(c3ccccc3)c3ncco3)CC2)c(F)c1)C1CCCCC1` (centres unmarked) [Compound 107, Cyclohexanecarboxylic acid {3-fluoro-4-[4-(oxazol-2-yl-phenyl-methyl)-piperazin-1-yl]-phenyl}-amide] was 1200 nM; that for `O=C(Nc1ccc(N2CCN(C(c3ccccc3)c3ncco3)CC2)c(F)c1)C1CCC(F)(F)CC1` (centres unmarked) [Compound 108, 4,4-Difluoro-cyclohexanecarboxylic acid {3-fluoro-4-[4-(oxazol-2-yl-phenyl-methyl)-piperazin-1-yl]-phenyl}-amide] was > 10000 nM; that for `N#Cc1cc(NC(=O)C2CCC(F)(F)CC2)ccc1N1CCN(C(c2ccccc2)c2ncco2)CC1` (centres unmarked) [Compound 109, 4,4-Difluoro-cyclohexanecarboxylic acid {3-cyano-4-[4-(oxazol-2-yl-phenyl-methyl)-piperazin-1-yl]-phenyl}-amide] was 3600 nM.
Take `CC(CC(F)(F)F)C(=O)Nc1ccc(N2CCN(C(c3ccccc3)c3ncco3)CC2)c(F)c1` (centres unmarked) [Compound 111, 4,4,4-Trifluoro-N-{3-fluoro-4-[4-(oxazol-2-yl-phenyl-methyl)-piperazin-1-yl]-phenyl}-2-methyl-butyramide]: the IC50 was determined as 360 nM.
`N#Cc1cc(NC(=O)C2CCCCC2)ccc1N1CCN(C(c2ccccc2)c2ncco2)CC1` (centres unmarked) [Compound 112, Cyclohexanecarboxylic acid {3-cyano-4-[4-(oxazol-2-yl-phenyl-methyl)-piperazin-1-yl]-phenyl}-amide] came in with an IC50 of 430 nM.
`CCC(CC)C(=O)Nc1ccc(N2CCN(C(c3ccccc3)C3CCOC3)CC2)c(F)c1` (centres unmarked) [Compound 114, 2-Ethyl-N-(3-fluoro-4-{4-[phenyl-(tetrahydro-furan-3-yl)-methyl]-piperazin-1-yl}-phenyl)-butyramide]: the IC50 worked out at 460 nM.
`CCC(CC)C(=O)Nc1ccc(N2CCN(C(c3ccccc3)C3C(C)C3(Cl)Cl)CC2)c(F)c1` (centres unmarked) [Compound 115, N-(4-{4-[(2,2-Dichloro-3-methyl-cyclopropyl)-phenyl-methyl]-piperazin-1-yl}-3-fluoro-phenyl)-2-ethyl-butyramide] had an IC50 of 450 nM.
As to `CCC(CC)C(=O)Nc1ccc(N2CCN(C(c3ncco3)C3CCC3)CC2)c(F)c1` (centres unmarked) [Compound 116, N-{4-[4-(Cyclobutyl-oxazol-2-yl-methyl)-piperazin-1-yl]-3-fluoro-phenyl}-2-ethyl-butyramide], the IC50 stood at 410 nM.
The same measure for `CCC(CC)C(=O)Nc1ccc(N2CCN(C(c3ncco3)C3CCCC3)CC2)c(F)c1` (centres unmarked) [Compound 117, N-{4-[4-(Cyclopentyl-oxazol-2-yl-methyl)-piperazin-1-yl]-3-fluoro-phenyl}-2-ethyl-butyramide]: 310 nM; for `CCC(CC)C(=O)Nc1ccc(N2CCN(C(c3ccc(F)cc3)c3ncco3)CC2)c(F)c1` (centres unmarked) [Compound 120, 2-Ethyl-N-(3-fluoro-4-{4-[(4-fluoro-phenyl)-oxazol-2-yl-methyl]-piperazin-1-yl}-phenyl)-butyramide]: 770 nM; for `CCC(CC)C(=O)Nc1ccc(N2CCN(C(c3ncco3)C3CCCCC3)CC2)c(F)c1` (centres unmarked) [Compound 122, N-{4-[4-(Cyclohexyl-oxazol-2-yl-methyl)-piperazin-1-yl]-3-fluoro-phenyl}-2-ethyl-butyramide]: 430 nM.
The same measure for `CCC(CC)C(=O)Nc1ccc(N2CCN(C(C#N)c3ccccc3C#N)CC2)c(F)c1` (centres unmarked) [Compound 136, N-(4-{4-[Cyano-(2-cyano-phenyl)-methyl]-piperazin-1-yl}-3-fluoro-phenyl)-2-ethyl-butyramide]: 9800 nM; for `CCC(CC)C(=O)Nc1ccc(N2CCN(C(C#N)c3ccccc3OC)CC2)c(F)c1` (centres unmarked) [Compound 137, N-(4-{4-[Cyano-(2-methoxy-phenyl)-methyl]-piperazin-1-yl}-3-fluoro-phenyl)-2-ethyl-butyramide]: 1200 nM; for `CCC(CC)C(=O)Nc1ccc(N2CCN(C(C#N)c3ccccn3)CC2)c(F)c1` (centres unmarked) [Compound 138, N-{4-[4-(Cyano-pyridin-2-yl-methyl)-piperazin-1-yl]-3-fluoro-phenyl}-2-ethyl-butyramide]: > 10000 nM.
The value for `CCC(CC)C(=O)Nc1ccc(N2CCN(C(c3ccc(OC)cc3)c3ncco3)CC2)c(F)c1` (centres unmarked) [Compound 140, 2-Ethyl-N-(3-fluoro-4-{4-[(4-methoxy-phenyl)-oxazol-2-yl-methyl]-piperazin-1-yl}-phenyl)-butyramide] was 320 nM.
On to `CCC(CC)C(=O)Nc1ccc(N2CCN(C(c3ccc(C#N)cc3)c3ncco3)CC2)c(F)c1` (centres unmarked) [Compound 146, N-(4-{4-[(4-Cyano-phenyl)-oxazol-2-yl-methyl]-piperazin-1-yl}-3-fluoro-phenyl)-2-ethyl-butyramide], for which the half-maximal inhibitory concentration (IC50) is 260 nM.
The value for `CCC(CC)C(=O)Nc1ccc(N2CCN(C(c3ccccn3)c3ncco3)CC2)c(C#N)c1` (centres unmarked) [Compound 155, N-{3-Cyano-4-[4-(oxazol-2-yl-pyridin-2-yl-methyl)-piperazin-1-yl]-phenyl}-2-ethyl-butyramide] was 150 nM; that for `CCC(CC)C(=O)Nc1ccc(N2CCN(C(c3ccccn3)c3ncco3)CC2)c(F)c1` (centres unmarked) [Compound 156, 2-Ethyl-N-{3-fluoro-4-[4-(oxazol-2-yl-pyridin-2-yl-methyl)-piperazin-1-yl]-phenyl}-butyramide] was 790 nM.
Compound `CCC(CC)C(=O)Nc1ccc(N2CCN(C(c3ccc(Cl)cc3)c3ncco3)CC2)c(F)c1` (centres unmarked) [Compound 157] gave an IC50 of 160 nM.
The value for `O=C(NCc1ccc(N2CCN(C(c3ccccc3)c3ncco3)CC2)c(F)c1)C1CC1` (centres unmarked) [Compound 171, Cyclopropanecarboxylic acid 3-fluoro-4-[4-(oxazol-2-yl-phenyl-methyl)-piperazin-1-yl]-benzylamide] was > 10000 nM.

(Values after patent US20120129870A1, “PIPERAZINYL DERIVATIVES USEFUL AS MODULATORS OF THE NEUROPEPTIDE Y2 RECEPTOR” (priority 2007, published 2012).)
